The values below come from patent US9102614B2, “Naphth-2-ylacetic acid derivatives to treat AIDS” (Gilead Sciences, Inc., priority 2010, dated 2015).

One assay deals with HIV-IIIb. Kind of assay: Test A: Antiviral Assays in MT4 Cells. The assay is classed as cell-based. Conditions: Human immunodeficiency virus 1, IIIB, MT4, 120 h. A digest of the protocol:
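MT-4 cells pre-infected with HIV-IIIb (0.004 m.o.i.) at 37 °C, then plated with 3-fold serially diluted compound (10 concentrations, quadruplicate, RPMI 1640/10% FBS). After 5 days at 37 °C, cell viability read by CellTiter-Glo chemiluminescence; mock-infected cells run in parallel.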
The EC50 is the concentration needed to bring the measured effect to its halfway point. Consider `Cc1cc2c(F)cc(F)cc2c(-c2ccc3c4c(ccnc24)CCO3)c1[C@H](OC(C)(C)C)C(=O)O` [Compound 110, (S)-2-tert-Butoxy-2-((R)-1-(2,3-dihydropyrano[4,3,2-de]quinolin-7-yl)-5,7-difluoro-3-methylnaphthalen-2-yl)acetic acid], for which the EC50 came to 0.067 µM.

Still in this assay, the particulars now being: Human immunodeficiency virus 1, IIIB, MT4, 120 h, MT-4 cells infected with HIV-IIIb (0.004 m.o.i.), 5 days of incubation, CellTiter-Glo chemiluminescence readout; read-out: EC50.
Take `Cc1cc2ccc(C#Cc3cncn3C)cc2c(-c2ccc(Cl)cc2)c1C(OC(C)(C)C)C(=O)O` (stereo not drawn) [Compound 81, 2-tert-Butoxy-2-(1-(4-chlorophenyl)-3-methyl-7-((1-methyl-1H-imidazol-5-yl)ethynyl)naphthalen-2-yl)acetic acid]: the EC50 was 0.15 µM. The same measure, in the same setting: the same measure for `Cc1cc2ccc(C#CC(C)(C)C)cc2c(-c2ccc(Cl)cc2)c1C(OC(C)(C)C)C(=O)O` (stereo not drawn) [Compound 72, 2-tert-Butoxy-2-(1-(4-chlorophenyl)-7-(3,3-dimethylbut-1-ynyl)-3-methylnaphthalen-2-yl)acetic acid]: 2 µM.

For `Cc1cc2ccc(C#CC3CC3)cc2c(-c2ccc(Cl)cc2)c1C(OC(C)(C)C)C(=O)O` (stereo not drawn) [Compound 75, 2-tert-Butoxy-2-(1-(4-chlorophenyl)-7-(cyclopropylethynyl)-3-methylnaphthalen-2-yl)acetic acid], the EC50 turned out to be 0.98 µM. On to `Cc1cc2c(Br)cccc2c(-c2ccc(Cl)cc2)c1C(OC(C)(C)C)C(=O)O` (stereo not drawn) [Compound 37, 2-(5-Bromo-1-(4-chlorophenyl)-3-methylnaphthalen-2-yl)-2-tert-butoxyacetic acid], for which the concentration giving a half-maximal response (EC50) amounted to 1.2 µM. As for `Cc1cc2c(C(N)=O)cc(F)cc2c(-c2ccc3c4c(ccnc24)CCO3)c1[C@H](OC(C)(C)C)C(=O)O` (atropisomer, axis not shown) [Compound 155], the EC50 turned out to be 29 µM. Same read-out and setting: the figure for `Cc1cc2ccc(CC(C)C)cc2c(-c2ccc(Cl)cc2)c1C(OC(C)(C)C)C(=O)O` (stereo not drawn) [Compound 94, 2-tert-Butoxy-2-(1-(4-chlorophenyl)-7-isobutyl-3-methylnaphthalen-2-yl)acetic acid] is 12 µM; for `Cc1c(C(OC(C)(C)C)C(=O)O)c(-c2ccc(Cl)cc2)c2ccccc2c1-c1ccc(=O)[nH]c1` (stereo not drawn) [Compound 144, 2-tert-Butoxy-2-(1-(4-chlorophenyl)-3-methyl-4-(6-oxo-1,6-dihydropyridin-3-yl)naphthalen-2-yl)acetic acid] it is 1.3 µM; for `Cc1cc2ccc(C#CC3(O)CCOCC3)cc2c(-c2ccc(Cl)cc2)c1C(OC(C)(C)C)C(=O)O` (stereo not drawn) [Compound 80, 2-tert-Butoxy-2-(1-(4-chlorophenyl)-7-((4-hydroxytetrahydro-2H-pyran-4-yl)ethynyl)-3-methylnaphthalen-2-yl)acetic acid] it is 0.051 µM.

Staying with this assay, now noted: MT-4 cells infected with HIV-IIIb (0.004 m.o.i.), 5 days of incubation, CellTiter-Glo chemiluminescence readout; read-out: EC50.
Consider `Cc1cc2cc(F)c(F)cc2c(-c2ccc3c4c(ccnc24)CCO3)c1[C@@H](OC(C)(C)C)C(=O)O` [Compound 109, (R)-2-tert-Butoxy-2-((R)-1-(2,3-dihydropyrano[4,3,2-de]quinolin-7-yl)-6,7-difluoro-3-methylnaphthalen-2-yl)acetic acid], for which the 50% effective concentration (EC50) was 29 µM. `Cc1cc2ccccc2c(-c2cc(F)cc3cccnc23)c1[C@H](OC(C)(C)C)C(=O)O` [Compound 158]: the EC50 was 35 µM. With `Cc1cc2ccc(F)cc2c(-c2ccc3c4c(ccnc24)CCO3)c1[C@H](OC(C)(C)C)C(=O)O` (racemic) [Compound 123, (±)-(2S)-2-tert-Butoxy-2-((R)-1-(2,3-dihydropyrano[4,3,2-de]quinolin-7-yl)-7-fluoro-3-methylnaphthalen-2-yl)acetic acid], the EC50 is 0.024 µM.
